Experimental data as given in ChEMBL document CHEMBL4257522, “Synthesis and preliminary anti-inflammatory and anti-bacterial evaluation of some diflunisal aza-analogs” (Medchemcomm, 2018).
Active and inactive are the calls of the source. The rule behind the calls is not given here.

Experiments:
Macrophage cell line [1] = assay: Cytotoxicity against human PBMC-differentiated macrophages treated for 24 hrs followed by compound washout and measured after 48 hrs by MTT assay; assay type: cell-based
Macrophage cell line [2] = assay: Antiinflammatory activity in human PBMC-differentiated macrophages assessed as inhibition of LPS-induced IL-8 production at 0.01 to 10 uM measured after 24 hrs by ELISA; assay type: functional, cell-based
Macrophage cell line [3] = assay: Induction of TNFalpha production in human PBMC-differentiated macrophages after 24 hrs by ELISA; assay type: cell-based
Macrophage cell line [4] = assay: Induction of IL-1beta production in human PBMC-differentiated macrophages after 24 hrs by ELISA; assay type: cell-based
Macrophage cell line [5] = assay: Induction of prostaglandin production in human PBMC-differentiated macrophages after 24 hrs by ELISA; assay type: cell-based
Staphylococcus aureus [6] = assay: Toxicity in Staphylococcus aureus ATCC 33592 up to 32 uM measured after 16 hrs; assay type: organism-based
Klebsiella pneumoniae [7] = assay: Toxicity in Klebsiella pneumoniae ATCC 13883 up to 32 uM measured after 16 hrs; assay type: organism-based
Enterococcus faecium [8] = assay: Toxicity in Enterococcus faecium ATCC 700221 up to 32 uM measured after 16 hrs; assay type: organism-based; settings: in vitro
Pseudomonas aeruginosa [9] = assay: Toxicity in Pseudomonas aeruginosa ATCC BAA-2108 up to 32 uM measured after 16 hrs; assay type: organism-based; settings: in vitro
Escherichia coli [10] = assay: Toxicity in Escherichia coli ATCC 43894 up to 32 uM measured after 16 hrs; assay type: organism-based
Staphylococcus aureus [11] = assay: Potentiation of methicillin-induced antibacterial activity against Staphylococcus aureus ATCC 33592 assessed as minimum modulatory concentration up to 32 uM measured after 16 hrs in presence of MIC/4 methicillin; assay type: functional; settings: ATCC 33592, 16 h, read-out: MEC
Staphylococcus aureus [12] = assay: Potentiation of geneticin-induced antibacterial activity against Staphylococcus aureus ATCC 33592 assessed as minimum modulatory concentration up to 32 uM measured after 16 hrs in presence of MIC/4 geneticin; assay type: functional; settings: ATCC 33592, 16 h, read-out: MEC
Staphylococcus aureus [13] = assay: Potentiation of ciprofloxacin-induced antibacterial activity against Staphylococcus aureus ATCC 33592 assessed as minimum modulatory concentration up to 32 uM measured after 16 hrs in presence of MIC/4 ciprofloxacin; assay type: functional; settings: ATCC 33592, 16 h, read-out: MEC
Staphylococcus aureus [14] = assay: Potentiation of tetracycline-induced antibacterial activity against Staphylococcus aureus ATCC 33592 assessed as minimum modulatory concentration up to 32 uM measured after 16 hrs in presence of MIC/4 tetracycline; assay type: functional; settings: ATCC 33592, 16 h, read-out: MEC
Staphylococcus aureus [15] = assay: Potentiation of erythromycin-induced antibacterial activity against Staphylococcus aureus ATCC 33592 assessed as minimum modulatory concentration up to 32 uM measured after 16 hrs in presence of MIC/4 erythromycin; assay type: functional; settings: ATCC 33592, 16 h, read-out: MEC
Streptococcus pyogenes [16] = assay: Potentiation of methicillin-induced antibacterial activity against Streptococcus pyogenes ATCC 14289 assessed as minimum modulatory concentration up to 32 uM measured after 16 hrs in presence of MIC/4 methicillin; assay type: functional; settings: ATCC 14289, 16 h, read-out: MEC
Streptococcus pyogenes [17] = assay: Potentiation of geneticin-induced antibacterial activity against Streptococcus pyogenes ATCC 14289 assessed as minimum modulatory concentration up to 32 uM measured after 16 hrs in presence of MIC/4 geneticin; assay type: functional; settings: ATCC 14289, 16 h, read-out: MEC
Streptococcus pyogenes [18] = assay: Potentiation of ciprofloxacin-induced antibacterial activity against Streptococcus pyogenes ATCC 14289 assessed as minimum modulatory concentration up to 32 uM measured after 16 hrs in presence of MIC/4 ciprofloxacin; assay type: functional; settings: ATCC 14289, 16 h, read-out: MEC
Streptococcus pyogenes [19] = assay: Potentiation of tetracycline-induced antibacterial activity against Streptococcus pyogenes ATCC 14289 assessed as minimum modulatory concentration up to 32 uM measured after 16 hrs in presence of MIC/4 tetracycline; assay type: functional; settings: ATCC 14289, 16 h, read-out: MEC
Streptococcus pyogenes [20] = assay: Potentiation of erythromycin-induced antibacterial activity against Streptococcus pyogenes ATCC 14289 assessed as minimum modulatory concentration up to 32 uM measured after 16 hrs in presence of MIC/4 erythromycin; assay type: functional; settings: ATCC 14289, 16 h, read-out: MEC
Klebsiella pneumoniae [21] = assay: Potentiation of methicillin-induced antibacterial activity against Klebsiella pneumoniae ATCC 13883 assessed as minimum modulatory concentration up to 32 uM measured after 16 hrs in presence of MIC/4 methicillin; assay type: functional; settings: ATCC 13883, 16 h, read-out: MEC
Klebsiella pneumoniae [22] = assay: Potentiation of geneticin-induced antibacterial activity against Klebsiella pneumoniae ATCC 13883 assessed as minimum modulatory concentration up to 32 uM measured after 16 hrs in presence of MIC/4 geneticin; assay type: functional; settings: ATCC 13883, 16 h, read-out: MEC
Klebsiella pneumoniae [23] = assay: Potentiation of erythromycin-induced antibacterial activity against Klebsiella pneumoniae ATCC 13883 assessed as minimum modulatory concentration up to 32 uM measured after 16 hrs in presence of MIC/4 erythromycin; assay type: functional; settings: ATCC 13883, 16 h, read-out: MEC
Enterococcus faecium [24] = assay: Potentiation of methicillin-induced antibacterial activity against Enterococcus faecium ATCC 700221 assessed as minimum modulatory concentration up to 32 uM measured after 16 hrs in presence of MIC/4 methicillin; assay type: functional; settings: ATCC 700221, 16 h, read-out: MEC
Enterococcus faecium [25] = assay: Potentiation of geneticin-induced antibacterial activity against Enterococcus faecium ATCC 700221 assessed as minimum modulatory concentration up to 32 uM measured after 16 hrs in presence of MIC/4 geneticin; assay type: functional; settings: ATCC 700221, 16 h, read-out: MEC
Enterococcus faecium [26] = assay: Potentiation of ciprofloxacin-induced antibacterial activity against Enterococcus faecium ATCC 700221 assessed as minimum modulatory concentration up to 32 uM measured after 16 hrs in presence of MIC/4 ciprofloxacin; assay type: functional; settings: ATCC 700221, 16 h, read-out: MEC
Enterococcus faecium [27] = assay: Potentiation of tetracycline-induced antibacterial activity against Enterococcus faecium ATCC 700221 assessed as minimum modulatory concentration up to 32 uM measured after 16 hrs in presence of MIC/4 tetracycline; assay type: functional; settings: ATCC 700221, 16 h, read-out: MEC
Enterococcus faecium [28] = assay: Potentiation of erythromycin-induced antibacterial activity against Enterococcus faecium ATCC 700221 assessed as minimum modulatory concentration up to 32 uM measured after 16 hrs in presence of MIC/4 erythromycin; assay type: functional; settings: ATCC 700221, 16 h, read-out: MEC
Pseudomonas aeruginosa [29] = assay: Potentiation of ciprofloxacin-induced antibacterial activity against Pseudomonas aeruginosa ATCC BAA-2108 assessed as minimum modulatory concentration up to 32 uM measured after 16 hrs in presence of MIC/4 ciprofloxacin; assay type: functional; settings: ATCC BAA-2108, 16 h, read-out: MEC
Pseudomonas aeruginosa [30] = assay: Potentiation of tetracycline-induced antibacterial activity against Pseudomonas aeruginosa ATCC BAA-2108 assessed as minimum modulatory concentration up to 32 uM measured after 16 hrs in presence of MIC/4 tetracycline; assay type: functional; settings: ATCC BAA-2108, 16 h, read-out: MEC
Pseudomonas aeruginosa [31] = assay: Potentiation of erythromycin-induced antibacterial activity against Pseudomonas aeruginosa ATCC BAA-2108 assessed as minimum modulatory concentration up to 32 uM measured after 16 hrs in presence of MIC/4 erythromycin; assay type: functional; settings: ATCC BAA-2108, 16 h, read-out: MEC
Escherichia coli [32] = assay: Potentiation of geneticin-induced antibacterial activity against Escherichia coli ATCC 43894 assessed as minimum modulatory concentration up to 32 uM measured after 16 hrs in presence of MIC/4 geneticin; assay type: functional; settings: ATCC 43894, 16 h, read-out: MEC
Escherichia coli [33] = assay: Potentiation of ciprofloxacin-induced antibacterial activity against Escherichia coli ATCC 43894 assessed as minimum modulatory concentration up to 32 uM measured after 16 hrs in presence of MIC/4 ciprofloxacin; assay type: functional; settings: ATCC 43894, 16 h, read-out: MEC
Escherichia coli [34] = assay: Potentiation of erythromycin-induced antibacterial activity against Escherichia coli ATCC 43894 assessed as minimum modulatory concentration up to 32 uM measured after 16 hrs in presence of MIC/4 erythromycin; assay type: functional; settings: ATCC 43894, 16 h, read-out: MEC

| SMILES | IC50 (Macrophage cell line [1]) | inhibition (Macrophage cell line [2]) | Activity (Macrophage cell line [3]) | Activity (Macrophage cell line [4]) | Activity (Macrophage cell line [5]) | Activity (Staphylococcus aureus [6]) | Activity (Klebsiella pneumoniae [7]) | Activity (Enterococcus faecium [8]) | Activity (Pseudomonas aeruginosa [9]) | Activity (Escherichia coli [10]) | minimal effective concentration (Staphylococcus aureus [11]) | minimal effective concentration (Staphylococcus aureus [12]) | minimal effective concentration (Staphylococcus aureus [13]) | minimal effective concentration (Staphylococcus aureus [14]) | minimal effective concentration (Staphylococcus aureus [15]) | minimal effective concentration (Streptococcus pyogenes [16]) | minimal effective concentration (Streptococcus pyogenes [17]) | minimal effective concentration (Streptococcus pyogenes [18]) | minimal effective concentration (Streptococcus pyogenes [19]) | minimal effective concentration (Streptococcus pyogenes [20]) | further results |
| --- | --- | --- | --- | --- | --- | --- | --- | --- | --- | --- | --- | --- | --- | --- | --- | --- | --- | --- | --- | --- | --- |
| C[n+]1ccc(C(=O)[O-])c(O)c1Cc1ccccc1 | > 100 µM | inactive | Non-Toxic | Non-Toxic | Non-Toxic | Non-Toxic | Non-Toxic | Non-Toxic | Non-Toxic | Non-Toxic | > 32 µM | > 32 µM | > 32 µM | > 32 µM | > 32 µM | > 32 µM | > 32 µM | > 32 µM | > 32 µM | > 32 µM | minimal effective concentration (Klebsiella pneumoniae [21]): > 32 µM; minimal effective concentration (Klebsiella pneumoniae [22]): > 32 µM; minimal effective concentration (Klebsiella pneumoniae [23]): > 32 µM; minimal effective concentration (Enterococcus faecium [24]): > 32 µM; minimal effective concentration (Enterococcus faecium [25]): > 32 µM; minimal effective concentration (Enterococcus faecium [26]): > 32 µM; minimal effective concentration (Enterococcus faecium [27]): > 32 µM; minimal effective concentration (Enterococcus faecium [28]): > 32 µM; minimal effective concentration (Pseudomonas aeruginosa [29]): > 32 µM; minimal effective concentration (Pseudomonas aeruginosa [30]): > 32 µM; minimal effective concentration (Pseudomonas aeruginosa [31]): > 32 µM; minimal effective concentration (Escherichia coli [32]): > 32 µM; minimal effective concentration (Escherichia coli [33]): > 32 µM; minimal effective concentration (Escherichia coli [34]): > 32 µM |
| Cc1nc(-c2ccccc2)cc(C(=O)O)c1O | 90.8 µM | inactive | Non-Toxic | Non-Toxic | Non-Toxic | Non-Toxic | Non-Toxic | Non-Toxic | Non-Toxic | Non-Toxic | 16 µM | 16 µM | > 32 µM | 16 µM | > 32 µM | > 32 µM | > 32 µM | > 32 µM | > 32 µM | > 32 µM | minimal effective concentration (Klebsiella pneumoniae [21]): > 32 µM; minimal effective concentration (Klebsiella pneumoniae [22]): > 32 µM; minimal effective concentration (Klebsiella pneumoniae [23]): > 32 µM; minimal effective concentration (Enterococcus faecium [24]): > 32 µM; minimal effective concentration (Enterococcus faecium [25]): > 32 µM; minimal effective concentration (Enterococcus faecium [26]): > 32 µM; minimal effective concentration (Enterococcus faecium [27]): > 32 µM; minimal effective concentration (Enterococcus faecium [28]): > 32 µM; minimal effective concentration (Pseudomonas aeruginosa [29]): > 32 µM; minimal effective concentration (Pseudomonas aeruginosa [30]): > 32 µM; minimal effective concentration (Pseudomonas aeruginosa [31]): > 32 µM; minimal effective concentration (Escherichia coli [32]): > 32 µM; minimal effective concentration (Escherichia coli [33]): > 32 µM; minimal effective concentration (Escherichia coli [34]): > 32 µM |
